Results as given in patent US9403806B1, “Cognition enhancing compounds and compositions, methods of making, and methods of treating” (NeuroSolis, Inc., priority 2010, dated 2016).
Like-named read-outs stand apart in the source and are kept apart here.

What was measured:
[1] = target: T1, human muscarinic M1 receptors (Homo sapiens, UniProt P11229); format: cell-based; details: for huM1/A9L Smax: percentage of maximal stimulation by carbachol; for huM1/A9L Potency relative to carbachol: relative to the potency of carbachol at its EC50
T1 construct: host or cells: A9L cells
T1 sequence (P11229 1-460): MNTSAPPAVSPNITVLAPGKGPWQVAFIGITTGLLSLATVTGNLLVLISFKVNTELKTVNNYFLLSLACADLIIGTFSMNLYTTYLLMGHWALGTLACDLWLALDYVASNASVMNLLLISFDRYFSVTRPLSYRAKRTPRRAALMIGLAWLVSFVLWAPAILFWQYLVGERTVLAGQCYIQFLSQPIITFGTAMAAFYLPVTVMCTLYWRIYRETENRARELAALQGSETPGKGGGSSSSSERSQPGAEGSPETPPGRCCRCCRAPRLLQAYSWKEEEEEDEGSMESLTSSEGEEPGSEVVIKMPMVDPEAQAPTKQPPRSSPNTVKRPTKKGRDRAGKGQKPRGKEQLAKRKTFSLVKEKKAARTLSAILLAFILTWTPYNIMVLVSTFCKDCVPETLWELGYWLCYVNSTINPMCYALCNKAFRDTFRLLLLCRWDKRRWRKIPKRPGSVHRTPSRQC
Protocol: (§1) Muscarinic M1 and M3 agonist activity was evaluated by measuring the stimulation of inositol phosphate (IP) production in the presence of lithium chloride from A9L cells transfected with expression plasmids containing human muscarinic M1 and M3 receptors, respectively. The cell lines were a gift from Professor William Messer, and the methods were as described in Tejada et al. (J. Med. Chem. 2006; 49: 7518-31) except that the assay was scaled down to run in 384-well plates and the concentration of inositol-1-phosphate in the lysates was determined using the non-isotopic IP-One Terbium TR-FRET assay kit (Cisbio Bioassays, cat. #62IPAPEJ) according to the manufacturer's instructions.
(§2) Cells were grown to 90% confluence in 384-well high-base, small-volume plates (Greiner Bio-One), compounds were added at suitable concentrations in growth medium containing 10 mM LiCl, buffered with an extra 10 mM HEPES (pH=7.4), and incubated for 60 minutes at 37° C. Cells were lysed and assayed for IP following the manufacturer's instructions.
(§3) The value for a full agonist is 100%, while partial agonists give values below 100%.

[2] = target: T2, human muscarinic M3 receptors (Homo sapiens, UniProt P20309); format: cell-based; details: for huM3/A9L Smax: percentage of maximal stimulation by carbachol; for huM3/A9L Potency relative to carbachol: relative to the potency of carbachol at its EC50
T2 construct: host or cells: A9L cells
Protocol: as §1, §2, §3

[3] = system: muscarinic M1 receptors in the hippocampus; test: In vivo inositol phosphate increase in hippocampus, Example 44; set-up: species or system Long Evans Hooded rats; details: rat, 3 mg/kg sc, 5 mmole/kg LiCl
Protocol: (§4) In lithium chloride-treated laboratory rodents, engagement of muscarinic M1 receptors in the hippocampus may usefully be evaluated in vivo by measuring the increase in the tissue of inositol phosphate (Bymaster F P et al Brain Res 795 (1998) 179-190). This may also be extended to measure engagement of muscaric M3 receptors in the salivary glands.
(§5) Experimental compounds were administered subcutaneously at 3 mg/kg using standard techniques to Long Evans Hooded rats weighing 225 to 350 g, and which had been pretreated with a subcutaneous injection of lithium chloride at a suitable dose between 3 and 5 mmole/kg. At suitable times the animals were briefly anesthetized using 5% isoflurane and euthanized by decapitation. The brains and submaxillary salivary glands were rapidly dissected out, and the hippocampuses were dissected from the brains. The dissected tissues were homogenized in a suitable volume of ice-cold phosphate-buffered saline containing 10 mM lithium chloride (pH=7.4) using a tissue homogenizer, and used immediately or frozen in aliquots at −80° C. for future use. The concentration of inositol-1-phosphate was determined in the homogenates using the […] IP-One Terbium TR-FRET assay kit (Cisbio Bioassays, cat. #62IPAPEJ) according to the manufacturer's instructions.

[4] = system: muscarinic M3 receptors in the salivary glands; test: In vivo inositol phosphate increase in salivary glands, Example 44; set-up: species or system Long Evans Hooded rats; details: rat, 3 mg/kg sc, 5 mmole/kg LiCl
Protocol: as §4, §5

[5] = system: pooled male human liver microsomes; test: Metabolism in human liver microsomes, Example 45; format: in vitro ADME
Protocol: Aliquots were removed every 2 hours, and 1% formic acid was added to halt the reaction. Samples were centrifuged, filtered through 0.2 micron spinfilter, and the amount of each compound in the supernatants was quantitated using LC/MS/MS as follows. The ultra-filtrates were subjected to reverse-phase liquid chromatography using a 150×2.1 mm Agilent C8-reverse phase column on a Shimadzu Prominence LC, eluting the compound with a gradient of 2%-50% acetonitrile+0.1% formic acid over 5 minutes. The concentration of the compound in the column effluent was measured using an Applied Biosystems API-3200 triple quadrupole mass spectrometer equipped with a Turbo V source (electrospray sample injection) system. The counts of the characteristic parent ions of the protonated compound and product ions were converted to concentration by comparison with a standard calibration curve. The parent/daughter ion pairs that were monitored for each compound were: 166.0/82.0 (105), 166.0/82.0 (106b), 166.0/82.0 (106a), 169.0/83.0 (136), 168.2/83.0 (121), 168.1/83.0 (122a), 168.1/83.0 (122b), 170.2/83.0 (134), 168.2/84.1 (135), 168.1/84.1 (137) and 169.2/82.1 (138).

[6] = Blood and brain concentrations (rats), tail vein injection; format: in vivo, Long-Evans Hooded rats; details: male, Long-Evans Hooded, rat, in vivo, 3 mg/kg, 3 mg/kg tail vein injection, read-out: Brain Concentration at 1 hr
Protocol: Long-Evans Hooded rats (Charles River: male, 230-300 g) were dosed with solutions of test compounds in PBS by tail vein injection. The dose for all compounds was 3 mg/kg. At one hour, the animals were anesthetized with isoflurane, and then euthanized by decapitation. Trunk blood was collected into a 1.5 mL microcentrifuge tube containing 15 U Heparin, and the plasma recovered after centrifugation. Brains were dissected, weighed, immediately chilled to 4° C., and homogenized using a PowerGen 125 homogenizer in five volumes of ice-cold 2% formic acid. Proteins were precipitated from plasma and brain homogenate with nine and five volumes respectively of ice-cold 2% formic acid and clarified by centrifugation. The supernatant was ultra-filtered by centrifugation through a 3K MWCO spin column (Pall Life Sciences), following the manufacturer's instructions. The concentration of compound in the ultra-filtrate was subjected to reverse-phase liquid chromatography using a 150×2.1 mm Agent C8 reverse-phase column on a Shimadzu Prominence LC, eluting the compounds with a gradient of 2% to 50% of acetonitrile+0.1% formic acid for all compounds. The concentration of the compound in the column effluent was measured using an Applied Biosystems API-3200 triple quadrupole mass spectrometer equipped with an electrospray sample injection system. The counts of the characteristic parent and product ions of each test compound were converted to concentration units by comparison with a standard curve.

in vitro = in vitro ADME; details: pH 7.4, 24 hours, room temperature
Protocol: PAMPA is a useful in vitro model for predicting the passive diffusion of drugs across the blood-brain barrier (Li, D et al Eur jour of Med Chem 38 (2003) 223-232).
Compounds were diluted in a 100 mM phosphate buffer (pH 7.4) to a concentration of 400 μM and the stock solutions were placed into a 96-well filter plate (Millipore, #MAIPN4510) pre-wetted with 20 mg/mL porcine brain polar lipid extract in 100% dodecane (Avanti, #131022) and placed into a 96-well acceptor plate (Millipore, #MSSACCEPTOR) whose wells were filled with the same phosphate buffer as in the filter plate. This assembly was incubated at room temperature for 24 hours. The experiment was halted by separating the filter plate from the acceptor plate. Aliquots were removed from the filter plate wells, acceptor plate wells, and stock solutions, and 1% trifluoroacetic acid was added to each. All solutions were measured by LC/UV, and passive diffusion rates were calculated using the peak area values (Avdeef, Alex. 2003. Page 147 in Absorption and Drug Development. Hoboken, N.J.: John Wiley & Sons).

[7] = target: T2, human muscarinic M3 receptors; test: IP production in A9L cells with human M3 receptors (IPOne TR-FRET), Example 28; format: cell-based; details: for huM3/A9L Smax: percentage of maximal stimulation by carbachol; for huM3/A9L ED50 relative to CCh*: potency relative to carbachol at its EC50, semi-quantitative
Protocol: (§6) Muscarinic M1 and M3 agonist activity was evaluated by measuring the stimulation of inositol phosphate (IP) production in the presence of lithium chloride from A9L cells transfected with expression plasmids containing human muscarinic M1 and M3 receptors, respectively. The cell lines were a gift from Professor W Messer, and the methods were as described in Tejada F R et al. J. Med. Chem. 2006; 49: 7518-31 except that the assay was scaled down to run in 384 well plates, and IP was measured in the cell lysates using the non-isotopic IPOne TR-FRET assay (CIS-BIO, Inc).
as §2, with “384 well hi-base” for “384-well high-base, small-volume”, “(pH7.4),” for “(pH=7.4),”
as §3

[8] = target: T1, human muscarinic M1 receptors; test: IP production in A9L cells with human M1 receptors (IPOne TR-FRET), Example 28; format: cell-based; details: for huM1/A9L Smax: percentage of maximal stimulation by carbachol; for huM1/A9L ED50 relative to CCh*: potency relative to carbachol at its EC50, semi-quantitative
Protocol: as §6
as §2, with “384 well hi-base” for “384-well high-base, small-volume”, “(pH7.4),” for “(pH=7.4),”
as §3

[9] = system: pooled male human liver microsomes; test: Metabolism by human liver microsomes, Example 33; format: in vitro ADME; details: for metabolism in human liver microsomes (in words): 6 hours incubation (FIGS. 4A, 4B); for rate of metabolism of S- versus R-enantiomer: human liver microsomes, as also in rat liver microsomes and FMO Supersomes
Protocol: Compounds were incubated with pooled male human liver microsomes (BD Biosciences, #452172) and an NADP-regenerating system in a phosphate buffer (pH 7.4) for a total of 6 hours. Aliquots were removed every 2 hours, and 1% formic acid was added to halt the reaction. Samples were centrifuged, filtered through 0.2 micron spinfilter and the amount of each compound in the supernatants was quantitated using LC/MS/MS.

T2 sequence (P20309 whole entry): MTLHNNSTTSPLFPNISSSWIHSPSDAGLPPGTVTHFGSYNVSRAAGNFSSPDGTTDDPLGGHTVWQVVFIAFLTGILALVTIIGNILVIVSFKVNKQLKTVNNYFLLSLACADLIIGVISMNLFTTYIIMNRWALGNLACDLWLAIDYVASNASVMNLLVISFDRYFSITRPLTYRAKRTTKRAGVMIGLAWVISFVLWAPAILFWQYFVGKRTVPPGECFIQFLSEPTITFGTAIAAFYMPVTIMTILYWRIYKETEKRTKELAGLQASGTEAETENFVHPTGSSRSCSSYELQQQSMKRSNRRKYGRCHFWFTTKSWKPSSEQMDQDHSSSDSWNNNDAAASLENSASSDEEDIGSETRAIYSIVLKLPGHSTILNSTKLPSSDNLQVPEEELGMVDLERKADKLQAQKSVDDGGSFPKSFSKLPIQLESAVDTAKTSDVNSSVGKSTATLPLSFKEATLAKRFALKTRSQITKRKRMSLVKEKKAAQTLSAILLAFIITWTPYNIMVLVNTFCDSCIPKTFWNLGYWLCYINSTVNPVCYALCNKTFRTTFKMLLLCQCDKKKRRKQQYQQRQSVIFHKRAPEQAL

| Compound | huM1/A9L Smax [1] [%] | huM1/A9L Potency relative to carbachol [1] | huM3/A9L Smax [2] [%] | huM3/A9L Potency relative to carbachol [2] | Increase in Inositol Phosphate in Hippocampus/Control ([3]; 3 mg/kg) [%] | Increase in Inositol Phosphate in Salivary Gland/Control ([4]; 3 mg/kg) [%] | Loss at 6 hrs (%) [5] [%] | concentration at 1 h [6] [µM] | PAMPA Permeability Coefficient (×10^6) (in vitro; 400 μM) | huM3/A9L Smax [7] [%] | huM3/A9L ED50 relative to CCh* [7] | huM1/A9L Smax [8] [%] | huM1/A9L ED50 relative to CCh* [8] | metabolism in human liver microsomes (in words) [9] | rate of metabolism of S- versus R-enantiomer [9] | Increase in Inositol Phosphate in Hippocampus/Control [3] [%] | Increase in Inositol Phosphate in Salivary Gland/Control [4] [%] | Papp at 24 h, 400 µM (in vitro; PAMPA, pH 7.4, 400 μM, read-out: PAMPA Permeability Coefficient (×10^6)) [nm/s] |
| --- | --- | --- | --- | --- | --- | --- | --- | --- | --- | --- | --- | --- | --- | --- | --- | --- | --- | --- |
| [2H]C([2H])([2H])c1noc(C23CNC([2H])([2H])C2C3)n1 (stereo not shown) [Compound 137, 5-(6,6-d2-3-azabicyclo[3.1.0]hexan-1-yl)-3-methyl-1,2,4-oxadiazole] | 97 | 1.26 | 62 | 0.19 | 503 | 198 | 24 | 5.5 | 4.00 ×10^6 |  |  |  |  |  |  |  |  |  |
| Cc1noc([C@@H]2CCCNC2)n1 [Compound 3b, R-(−)-3-methyl-5-(piperidin-3-yl)-1,2,4-oxadiazole] |  |  |  |  |  |  |  |  |  | 47 | − (− potency <0.5-0.1x CCh) | 147 | +/− (+/− potency 0.5-2x CCh) | metabolized significantly less in human liver microsomes than in rat liver microsomes |  |  |  |  |
| [2H]C([2H])([2H])c1noc([C@H]2CCCNC2)n1 [Compound 7a, S-(+)-3-D3-methyl-5-(piperidin-3-yl)-1,2,4-oxadiazole] |  |  |  |  |  |  |  |  |  | 76 | −− (−− potency <0.1x CCh) | 81 | +/− (+/− potency 0.5-2x CCh) | metabolized significantly less in human liver microsomes than in rat liver microsomes | metabolized faster than the R-enantiomers |  |  |  |
| Cc1noc([C@H]2CCCNC2)n1 [Compound 3a, S-(+)-3-methyl-5-(piperidin-3-yl)-1,2,4-oxadiazole] |  |  |  |  |  |  |  |  |  | 66 | +/− (+/− potency 0.5-2x CCh) | 129 | + (+ potency 2-10x CCh) | metabolized significantly less in human liver microsomes than in rat liver microsomes | metabolized faster than the R-enantiomers |  |  |  |
| [2H]C([2H])([2H])c1noc(C23CNCC2C3)n1 (stereo not shown) [Compound 138, 5-(3-azabicyclo[3.1.0]hexan-1-yl)-3-methyl-d3-1,2,4-oxadiazole] | 93 | 1.34 | 43 | 0.37 |  |  | 29 | 5.5 |  |  |  |  |  |  |  | 357 | 217 | 41 |
| [2H]C([2H])([2H])c1noc([C@@H]2CCCNC2)n1 [Compound 7b, R-(−)-3-D3-methyl-5-(piperidin-3-yl)-1,2,4-oxadiazole] |  |  |  |  |  |  |  |  |  | 86 | +/− (+/− potency 0.5-2x CCh) | 90 | + (+ potency 2-10x CCh) | metabolized significantly less in human liver microsomes than in rat liver microsomes |  |  |  |  |
